Tests used:
hα4 and β1 integrins = molecular target: T1, hα4 and β1 integrins (Homo sapiens, UniProt P05556+P13612); assay: In vitro inhibition of binding between CHO cells expressing hα4 and β1 integrins and Eu3+-hVCAM-1 D1D7-IgG; conditions: for Ki: CHO cells expressing hα4 and β1 integrins, Eu3+-hVCAM-1 D1D7-IgG ligand, without HSA; for IC50: in the presence of 3% human serum albumin (HSA final concentration 3%)
T1 construct: expressed in transfected cells; host or cells: CHO cells
In short: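 Bound europium-labelled VCAM-1 D1D7-IgG on α4β1-expressing CHO cells was measured by time-resolved fluorescence after washing at 4 °C. Ligand (2 nM working dilution) and test compound, with or without 3% final HSA, were co-incubated for 1 h at room temperature in Mn²⁺-containing HEPES buffer, pH 7.5. IC50 came from % binding inhibition; Ki was calculated from ligand concentration and Scatchard Kd.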

[1] = test system: eosinophile infiltration in mice actively sensitized with ascaris; assay: Test for eosinophile infiltration in mice actively sensitized with ascaris, once-a-day administration; format: in vivo
Method: (§1) Test for eosinophile infiltration in mice actively sensitized with ascaris (antigen to pig roundworm):
In the same manner as in Evaluation Example 2, the substances under test were orally administered once a day, in an amount of 5 mg/kg for compound A (representative compound of WO 02/053534) and the compound of Example 58, and in an amount of 0.8 mg/kg of the compound of Example 161, and an evaluation was performed in the same manner as in Evaluation Example 2.

[2] = Test for pharmacokinetics and oral absorbability in monkeys; format: in vivo; conditions: orally 0.5 mg/kg, single agent
Method: The pharmacokinetic parameters in the case of orally administering (0.5 mg/kg, single agent) the substance under test to monkeys, were as follows.

[3] = test system: eosinophile infiltration in mice actively sensitized with ascaris; assay: Test for eosinophile infiltration in mice actively sensitized with ascaris, administered two times a day; format: in vivo; conditions: orally 5 mg/kg two times a day
Method: as §1
It has been reported that infiltration of eosinophilic cells is induced by active sensitization with ascaris {Int. Arch. Immuno., 108, 11-18 (1995)}. An evaluation of the compounds under test was performed according to the evaluation method described herein. The substance under test was orally administered in an amount of 5 mg/kg, two times a day. The total cell count and the eosinophile count in BALF of 48 hours after sensitization were calculated, and the effects were determined by comparing with the group not administered with the substance under test.

T1 sequence (P13612 34-1032): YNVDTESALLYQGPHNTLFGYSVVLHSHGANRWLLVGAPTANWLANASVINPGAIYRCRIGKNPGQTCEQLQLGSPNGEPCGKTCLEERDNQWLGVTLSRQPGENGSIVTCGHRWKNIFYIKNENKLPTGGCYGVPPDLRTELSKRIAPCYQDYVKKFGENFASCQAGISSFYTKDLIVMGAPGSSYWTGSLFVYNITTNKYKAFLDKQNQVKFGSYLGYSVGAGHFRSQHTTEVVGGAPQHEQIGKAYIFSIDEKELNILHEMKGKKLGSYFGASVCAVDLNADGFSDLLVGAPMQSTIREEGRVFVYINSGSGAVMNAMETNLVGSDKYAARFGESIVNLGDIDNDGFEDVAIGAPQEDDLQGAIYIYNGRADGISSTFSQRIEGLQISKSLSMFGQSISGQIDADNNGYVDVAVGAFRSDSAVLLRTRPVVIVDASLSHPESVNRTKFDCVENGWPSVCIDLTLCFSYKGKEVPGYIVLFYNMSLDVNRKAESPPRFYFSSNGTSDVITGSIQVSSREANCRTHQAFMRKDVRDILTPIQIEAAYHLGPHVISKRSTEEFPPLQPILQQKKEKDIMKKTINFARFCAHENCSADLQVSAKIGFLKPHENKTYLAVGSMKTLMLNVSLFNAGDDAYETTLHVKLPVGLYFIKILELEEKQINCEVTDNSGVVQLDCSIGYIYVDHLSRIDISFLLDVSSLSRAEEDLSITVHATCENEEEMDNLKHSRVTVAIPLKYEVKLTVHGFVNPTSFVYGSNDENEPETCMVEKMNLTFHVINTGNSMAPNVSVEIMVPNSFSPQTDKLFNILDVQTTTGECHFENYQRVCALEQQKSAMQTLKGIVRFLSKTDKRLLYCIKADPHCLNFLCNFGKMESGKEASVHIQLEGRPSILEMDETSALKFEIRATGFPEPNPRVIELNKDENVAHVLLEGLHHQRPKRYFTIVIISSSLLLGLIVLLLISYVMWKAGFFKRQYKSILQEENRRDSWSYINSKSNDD
T1 sequence (P05556 21-798): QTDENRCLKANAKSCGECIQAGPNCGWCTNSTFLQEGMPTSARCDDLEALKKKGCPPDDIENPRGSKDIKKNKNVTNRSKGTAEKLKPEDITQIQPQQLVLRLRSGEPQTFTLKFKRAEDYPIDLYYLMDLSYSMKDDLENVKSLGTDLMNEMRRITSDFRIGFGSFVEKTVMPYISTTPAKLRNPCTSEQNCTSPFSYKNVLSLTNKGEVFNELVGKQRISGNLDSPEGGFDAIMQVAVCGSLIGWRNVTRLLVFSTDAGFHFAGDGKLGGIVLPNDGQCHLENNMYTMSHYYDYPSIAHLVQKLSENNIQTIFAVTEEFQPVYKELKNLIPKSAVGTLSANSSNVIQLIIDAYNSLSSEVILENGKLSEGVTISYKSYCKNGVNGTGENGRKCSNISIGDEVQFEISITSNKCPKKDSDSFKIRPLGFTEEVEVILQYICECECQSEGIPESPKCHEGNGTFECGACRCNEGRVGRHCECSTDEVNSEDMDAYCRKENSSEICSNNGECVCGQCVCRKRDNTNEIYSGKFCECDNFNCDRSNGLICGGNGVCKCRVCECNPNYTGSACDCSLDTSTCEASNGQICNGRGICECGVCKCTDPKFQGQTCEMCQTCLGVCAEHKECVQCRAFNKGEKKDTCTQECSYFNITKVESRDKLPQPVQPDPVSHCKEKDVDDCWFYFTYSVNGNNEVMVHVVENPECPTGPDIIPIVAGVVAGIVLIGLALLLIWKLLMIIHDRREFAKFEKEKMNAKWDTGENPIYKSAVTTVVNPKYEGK

Row | Ki (hα4 and β1 integrins) [nM] | IC50 (hα4 and β1 integrins) [nM] | Cltot (mL/min/kg): apparent plasma clearance [2] [mL/min/kg] | AUC (ng · h/ml): total area under the plasma concentration versus time curve ([2]; plasma, LC/MS/MS) [ng·h/mL] | Compound | Average total eosinophile count (×10^5) of (ascaris-sensitized + substance under test) group ([1]; orally 5 mg/kg once a day) | inhibition in vivo at 5 mg/kg ([3]; Mus musculus, po, eosinophile count in BALF 48 hours after sensitization vs ascaris-sensitized group, read-out: suppression rate (%)) [%] | Average total eosinophile count (×10^5) of (ascaris-sensitized + substance under test) group ([3]; BALF 48 hours after sensitization) | Average total eosinophile count (×10^5) of (ascaris-sensitized + substance under test) group ([1]; orally 0.8 mg/kg once a day)
1 | 1.5 | 9.3 | 2.0 | 7555 | CO[C@H]1CN([C@H]2C[C@@H](CO[C@H]3CC[C@H](C(=O)O)CC3)N(C(=O)Cc3cc(Cl)c(NC(=O)c4csc5ccccc45)cc3Cl)C2)C[C@H]1OC [Example 58, Trans-4-[1-[[4-[(benzo[b]thiophen-3-ylcarbonyl)amino]-2,5-dichlorophenyl]acetyl]-(4S)-(cis-3,4-dimethoxypyrrolidin-1-yl)-(2S)-pyrrolidinylmethoxy]cyclohexanecarboxylic acid] | 1.73 ×10^5 | 63 | 1.63 ×10^5 | 
2 | 1.8 | 8.3 |  |  | O=C(Nc1cc(F)c(CC(=O)N2C[C@@H](N3CCS(=O)(=O)CC3)C[C@H]2CO[C@H]2CC[C@H](C(=O)O)CC2)cc1Cl)c1coc2ccccc12 [Example 161, Trans-4-[1-[[4-[(benzo[b]furan-3-ylcarbonyl)amino]-5-chloro-2-fluorophenyl]acetyl]-(4S)-(1,1-dioxo-1λ^6-thiomorpholin-4-yl)-(2S)-pyrrolidinylmethoxy]cyclohexanecarboxylic acid] |  |  |  | 2.06 ×10^5

Source: patent US8129366B2, “VLA-4 inhibitory drug” (Daiichi Sankyo Company, Limited, priority 2005, dated 2012)
